Reference: patent US10053468B2, “Heterocyclic compound” (TAKEDA PHARMACEUTICAL COMPANY LIMITED, priority 2013, dated 2018)
Like-named read-outs stand apart in the source and are kept apart here.

Tests used:
[1] = molecular target: T1, RORγt (Homo sapiens, UniProt P51449); test: Jurkat reporter test (human IL-17 ROR response element luciferase, RORγt vector); format: cell-based; conditions: read-out: Luminescence level inhibitory rate at test compound 3 μM (%)
T1 sequence (P51449 1-497 isoform P51449-2): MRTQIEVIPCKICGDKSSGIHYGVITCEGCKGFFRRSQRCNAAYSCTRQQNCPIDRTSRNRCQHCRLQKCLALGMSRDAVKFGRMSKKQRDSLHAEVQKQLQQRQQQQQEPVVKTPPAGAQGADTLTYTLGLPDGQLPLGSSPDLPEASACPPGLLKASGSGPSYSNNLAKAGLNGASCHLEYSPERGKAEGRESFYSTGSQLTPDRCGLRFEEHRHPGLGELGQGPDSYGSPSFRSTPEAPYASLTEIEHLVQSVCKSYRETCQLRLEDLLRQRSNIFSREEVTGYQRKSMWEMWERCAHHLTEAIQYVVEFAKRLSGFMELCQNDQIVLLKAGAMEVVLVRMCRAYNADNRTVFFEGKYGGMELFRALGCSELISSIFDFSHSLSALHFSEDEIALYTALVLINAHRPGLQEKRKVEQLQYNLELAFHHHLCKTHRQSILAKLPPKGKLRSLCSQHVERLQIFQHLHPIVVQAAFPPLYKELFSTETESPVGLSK
Experimental: The Jurkat cells used for the reporter test were cultured in a culture medium (RPMI (Invitrogen), 10% FCS (AusGeneX), 100 U/mL penicillin, 100 μg/mL streptomycin). On the day of the test, 4×10^7 cells were recovered by a centrifugal operation (1000 rpm, 5 min.) and suspended in PBS (phosphate buffered saline) (Invitrogen). Thereafter, the cells were recovered again by a centrifugal operation, and suspended in 2 mL of R buffer (NEON transfection kit, Invitrogen). […] Gene transfer was performed by Electroporation apparatus (NEON, Invitrogen) under the conditions of pulse voltage 1350 V, interval 10 milliseconds, number of times 3. The cells after gene transfer were suspended in 40 mL of a reaction medium (RPMI, 10% Lipid reduced FCS (HyClone), 10 mM HEPES (pH 7.5), 100 U/mL penicillin, 100 μg/mL streptomycin, 5 μM lovastatin), and plated in a 96 well plate by 90 μL. A test compound diluted with the reaction medium was added by 10 μL, and the cells were cultured overnight in an incubator. Bright-Glo (Promega) was added by 100 μL, and the mixture was stirred at room temperature for 10 min, and the luminescence level was measured by Envision (PerkinElmer).

[2] = molecular target: T1, RORγt; test: Cofactor recruitment test (Alpha Screen, biotinylated SRC-1 peptide); format: biochemical; conditions: read-out: Signal value inhibitory rate at test compound 1 μM (%)
Experimental: Cofactor Recruitment Test
Cofactor recruitment test was performed by Alpha Screen (Histidine Detection Kit, PerkinElmer) method. First, a test compound was diluted with an assay buffer (50 mM Tris-HCl (pH 7.5), 50 mM KCl, 1 mM DTT, 0.1% BSA) and added to a 384 well plate by 5 μL. […] The mixture was stood in a dark place for 1 hr, and the signal value was measured by Envision (PerkinElmer).

[3] = molecular target: T1, RORγt; test: RORγt binding test using fluorescent-labeled synthetic ligand (TR-FRET); conditions: read-out: Binding inhibitory rate of fluorescent-labeled synthetic ligand to RORγt at test compound 1 μM (%)
Experimental: RORγt Binding Test Using Fluorescent-labeled Synthetic Ligand
(§1) The binding activity of the test compound to RORγt was measured by a time resolved fluorescence resonance energy transfer method (TR-FRET) utilizing histidine-tagged RORγt, fluorescent-labeled synthetic ligand, and terbium-labeled anti-histidine tag antibody (Invitrogen). First, a test compound diluted with an assay buffer (20 mM Tris-HCl (pH 7.5), 100 mM NaCl, 1 mM DTT, 0.1% BSA) was added to a 384 well plate by 3 μL. Then, RORγt diluted with an assay buffer to 240 nM was added by 3 μL, after which fluorescent-labeled synthetic ligand diluted with the assay buffer to 12 μM was added by 3 μL, and the mixture was stood at room temperature for 20 min. Thereafter, a terbium-labeled anti-histidine tag antibody diluted with the assay buffer to 8 nM was added by 3 μL. The mixture was stood at room temperature for 20 min, and fluorescence intensity (excitation wavelength 320 nm, fluorescence wavelength 520 nm, delay time 100 microseconds) was measured by Envision (PerkinElmer).

[4] = molecular target: T1, RORγt; test: RORγt binding test using fluorescent-labeled cholesterol (TR-FRET); conditions: read-out: Binding inhibitory rate of fluorescent-labeled cholesterol to RORγt at test compound 1 μM (%)
Experimental: RORγt Binding Test Using Fluorescent-labeled Cholesterol
as §1, with “cholesterol (BODIPY-cholesterol, AVIVA),” for “synthetic ligand,”, “cholesterol” for “synthetic ligand”

Row | inhibition at 3 µM ([1]; test compound 3 μM, Jurkat cells) | SMILES | inhibition at 3 µM ([1]; Jurkat) | inhibition at 1 µM [2] | inhibition at 1 µM [3] | inhibition at 1 µM [4]
1 | – | CCOc1ccc2c(c1)CCN(C(=O)CCCCC(=O)O)[C@H]2C(=O)Nc1ccc([Si](C)(C)C)c(F)c1 [Example 211, 6-((1R)-6-ethoxy-1-((3-fluoro-4-(trimethylsilyl)phenyl)carbamoyl)-3,4-dihydroisoquinolin-2 (1H)-yl)-6-oxohexanoic acid] | 101% | 92% | 101% | –
2 | – | C[Si](C)(C)c1ccc(NC(=O)[C@H]2c3ccc(OC(F)F)cc3CCN2C(=O)CCCC(=O)O)cc1F [Example 194, 5-((1R)-6-(difluoromethoxy)-1-((3-fluoro-4-(trimethylsilyl)phenyl)carbamoyl)-3,4-dihydroisoquinolin-2(1H)-yl)-5-oxopentanoic acid] | 100% | 87% | 101% | –
3 | – | CCOc1ccc2c(c1)CCN(C(=O)CC(C)(O)CC(=O)O)[C@H]2C(=O)Nc1cc(F)c([Si](C)(C)C)c(F)c1 (stereo partly drawn) [Example 240, 5-((1R)-1-((3,5-difluoro-4-(trimethylsilyl)phenyl)carbamoyl)-6-ethoxy-3,4-dihydroisoquinolin-2(1H)-yl)-3-hydroxy-3-methyl-5-oxopentanoic acid] | 101% | 91% | 101% | –
4 | – | C[Si](C)(C)c1c(F)cc(NC(=O)[C@H]2c3ccc4c(c3CCN2C(=O)CCCC(=O)O)OCO4)cc1F [Example 254, 5-((6R)-6-((3,5-difluoro-4-(trimethylsilyl)phenyl)carbamoyl)-8,9-dihydro[1,3]dioxolo[4,5-f]isoquinolin-7(6H)-yl)-5-oxopentanoic acid] | 102% | 101% | 102% | –
5 | – | C[Si](C)(C)c1c(F)cc(NC(=O)[C@H]2c3ccc(OC(F)F)cc3CCN2C(=O)CCC(=O)O)cc1F [Example 195, 4-((1R)-6-(difluoromethoxy)-1-((3,5-difluoro-4-(trimethylsilyl)phenyl)carbamoyl)-3,4-dihydroisoquinolin-2 (1H)-yl)-4-oxobutanoic acid] | 101% | 89% | 101% | –
6 | – | C[Si](C)(C)c1c(F)cc(NC(=O)[C@H]2c3ccc(S(C)(=O)=O)cc3CCN2C(=O)CCCC(=O)O)cc1F [Example 235, 5-((1R)-1-((3,5-difluoro-4-(trimethylsilyl)phenyl)carbamoyl)-6-(methylsulfonyl)-3,4-dihydroisoquinolin-2(1H)-yl)-5-oxopentanoic acid] | 93% | 45% | 102% | –
7 | – | COc1ccc2c(c1)CCN(C(=O)[C@@H](O)CCC(=O)O)[C@H]2C(=O)Nc1cc(F)c([Si](C)(C)C)c(F)c1 [Example 248, (4S)-5-((1R)-1-((3,5-difluoro-4-(trimethylsilyl)phenyl)carbamoyl)-6-methoxy-3,4-dihydroisoquinolin-2(1H)-yl)-4-hydroxy-5-oxopentanoic acid] | 100% | 87% | 101% | –
8 | – | CC[Si](C)(C)c1c(F)cc(NC(=O)[C@H]2c3ccc(OC)cc3CCN2C(=O)Cc2cc(O)no2)cc1F [Example 88, (1R)-N-(4-(ethyl (dimethyl)silyl)-3,5-difluorophenyl)-2-((3-hydroxy-1,2-oxazol-5-yl)acetyl)-6-methoxy-1,2,3,4-tetrahydroisoquinoline-1-carboxamide] | – | – | 102% | –
9 | – | C[Si](C)(C)c1c(F)cc(NC(=O)[C@H]2c3ccc(OC(F)F)cc3CCN2C(=O)CCCC(=O)O)cc1F [Example 196, 5-((1R)-6-(difluoromethoxy)-1-((3,5-difluoro-4-(trimethylsilyl)phenyl)carbamoyl)-3,4-dihydroisoquinolin-2 (1H)-yl)-5-oxopentanoic acid] | 100% | 91% | 102% | –
10 | – | CCOc1ccc2c(c1)CCN(C(=O)CCCC(=O)O)[C@H]2C(=O)Nc1ccc([Si](C)(C)C)c(F)c1 [Example 183, 5-((1R)-6-ethoxy-1-((3-fluoro-4-(trimethylsilyl)phenyl)carbamoyl)-3,4-dihydroisoquinolin-2 (1H)-yl)-5-oxopentanoic acid] | 102% | 91% | 101% | –
11 | – | CCOc1ccc2c(c1)CCN(C(=O)NCCC(=O)O)[C@H]2C(=O)Nc1cc(F)c([Si](C)(C)C)c(F)c1 [Example 227, N-(((1R)-1-((3,5-difluoro-4-(trimethylsilyl)phenyl)carbamoyl)-6-ethoxy-3,4-dihydroisoquinolin-2(1H)-yl)carbonyl)-beta-alanine] | 101% | 95% | 102% | –
12 | – | CCOc1ccc2c(c1)CCN(C(=O)CCC(=O)O)[C@H]2C(=O)Nc1cc(F)c([Si](C)(C)C)c(F)c1 [Example 180, 4-((1R)-1-((3,5-difluoro-4-(trimethylsilyl)phenyl)carbamoyl)-6-ethoxy-3,4-dihydroisoquinolin-2(1H)-yl)-4-oxobutanoic acid] | 100% | 93% | 101% | –
13 | 83% | CC1(C)CCc2cc(NC(=O)[C@H]3c4ccc5c(c4CCN3C(=O)CCCC(=O)O)OCO5)cc(F)c21 [Example 256, 5-((6R)-6-((7-fluoro-1,1-dimethyl-2,3-dihydro-1H-inden-5-yl)carbamoyl)-8,9-dihydro[1, 3]dioxolo[4,5-f]isoquinolin-7 (6H)-yl)-5-oxopentanoic acid] | – | 102% | 100% | –
14 | – | CCOc1ccc2c(c1)CCN(C(=O)N1CC(CC(=O)O)C1)[C@H]2C(=O)Nc1cc(F)c([Si](C)(C)C)c(F)c1 [Example 231, (1-(((1R)-1-((3,5-difluoro-4-(trimethylsilyl)phenyl)carbamoyl)-6-ethoxy-3,4-dihydroisoquinolin-2(1H)-yl)carbonyl)azetidin-3-yl)acetic acid] | 101% | 96% | 101% | –
15 | – | COc1ccc2c(c1)CCN(C(=O)c1ccc(=O)[nH]c1)C2C(=O)Nc1ccc([Si](C)(C)C)cc1 (stereo not shown) [Example 2, 6-methoxy-2-((6-oxo-1,6-dihydropyridin-3-yl)carbonyl)-N-(4-(trimethylsilyl)phenyl)-1,2,3,4-tetrahydroisoquinoline-1-carboxamide] | 98.1% | 80.5% | – | 99.7%
